57 molecules from ChEMBL document CHEMBL5385933, “Preparation and Preliminary Structure-Activity Relationship Studies of Schwarzinicine A Analogs as Vasorelaxant Agents” (J Nat Prod, 2024) can be followed below.

The subject of assay [1] is Aorta. In words: Vasorelaxant activity in Sprague-Dawley rat aortic rings assessed as reduction in phenylephrine-induced contractions by measuring maximum efficacy by organ bath assay relative to control. The format is functional.
Assay [2] relates to Aorta. In words: Vasorelaxant activity in Sprague-Dawley rat aortic rings assessed as reduction in phenylephrine-induced contractions by organ bath assay. The assay is classed as functional, tissue-based.

The term Emax denotes the maximal effect, on the per cent scale that the assay sets. For orientation: EC50 means the concentration giving half of the maximal effect. Consider `CCCC(Cc1ccccc1)NCCCCc1ccccc1` (centres undefined), for which the Emax in the assay on Aorta [1] turned out to be 127%. For the same molecule, the EC50 with Aorta [2] was 2740 nM.

For `c1ccc(CCNC2CCc3ccccc3C2)cc1` (centres undefined), the Emax in the assay with Aorta [1] was 119%. For the same molecule, in the assay with Aorta [2], the EC50 worked out at 500 nM.

Regarding `c1ccc(CCNC2Cc3ccccc3C2)cc1`, in the assay with Aorta [1], the Emax turned out to be 113%. Further, the EC50 in the assay with Aorta [2] amounted to 200 nM.

Take `CCCC(Cc1ccccc1)NCCN1CCOCC1` (centres undefined): in the assay with Aorta [1], the Emax is 89.8%. Also, the EC50 with Aorta [2] turned out to be 2740 nM.

On to `COc1ccc(CCNC(C)Cc2ccc(OC)c(OC)c2)cc1OC` (centres undefined), for which the Emax in the assay with Aorta [1] was determined as 104%. In addition, in the assay on Aorta [2], the EC50 came out at 2890 nM.

Regarding `COc1ccc(CCNC(Cc2ccccc2)Cc2ccccc2)cc1OC`, the Emax in the assay with Aorta [1] was 115%. Besides, the EC50 in the assay on Aorta [2] was determined as 1860 nM.

Take `c1ccc(CCNC(CCc2ccccc2)Cc2ccccc2)cc1` (centres undefined): the Emax in the assay with Aorta [1] was 116%. Also, the EC50 with Aorta [2] is 2300 nM.

On to `CCCC(Cc1csc2ccccc12)NCCc1ccccc1` (centres undefined), for which, in the assay with Aorta [1], the Emax was determined as 112%. Besides, in the assay with Aorta [2], the EC50 was 370 nM.

Regarding `CCCC(CCCCc1ccccc1)NCCc1ccccc1` (centres undefined), the Emax with Aorta [1] turned out to be 121%. Moreover, the EC50 in the assay on Aorta [2] was determined as 2020 nM.

With `CCC(CCc1ccco1)NCCN1CCCCC1` (centres undefined), the Emax in the assay on Aorta [1] is 97.8%. Further, in the assay with Aorta [2], the EC50 turned out to be 420 nM.

On to `CCCC(Cc1ccccc1)NC1Cc2ccccc2C1` (centres undefined), for which the Emax in the assay on Aorta [1] came to 114%. Moreover, the EC50 with Aorta [2] was found to be 350 nM.

For `CCCC(Cc1ccccc1)NC1CCCC1` (centres undefined), in the assay with Aorta [1], the Emax was 116%. Besides, the EC50 in the assay with Aorta [2] stood at 3090 nM.

Take `CCCC(Cc1ccccc1)NCCc1c[nH]cn1` (centres undefined): the Emax with Aorta [1] was 122%. The EC50 with Aorta [2] is 1370 nM.

With `CCCC(Cc1ccccc1)NC1CC2CCC1C2` (centres undefined), in the assay with Aorta [1], the Emax is 106%. Further, the EC50 with Aorta [2] was 480 nM.

For `CCCC(Cc1ccc(Cl)cc1)NCCc1ccccc1` (centres undefined), the Emax in the assay on Aorta [1] stood at 114%. Also, the EC50 in the assay with Aorta [2] was determined as 1950 nM.

Take `CCCC(CC1CCCCC1)NCCc1ccccc1` (centres undefined): in the assay with Aorta [1], the Emax was 114%. In addition, the EC50 with Aorta [2] was 1840 nM.

For `CCCC(Cc1ccccc1)NCCc1ccccc1` (centres undefined), the Emax in the assay with Aorta [1] is 113%. Also, in the assay with Aorta [2], the EC50 is 3060 nM.

Consider `CCCC(Cc1ccc(C)cc1)NCCc1ccccc1` (centres undefined), for which the Emax with Aorta [1] turned out to be 120%. The EC50 in the assay with Aorta [2] is 2640 nM.

Take `Fc1ccc(CCNC(CCc2ccccc2)Cc2ccc(Cl)cc2)cc1` (centres undefined): the Emax in the assay on Aorta [1] is 92.2%. The EC50 in the assay on Aorta [2] was 650 nM.

With `CCCC(Cc1cccs1)NCCc1ccccc1` (centres undefined), the Emax in the assay on Aorta [1] was found to be 110%. Also, the EC50 in the assay with Aorta [2] turned out to be 410 nM.

Turning to `CCC(CCCCc1ccccc1)NCCc1ccccc1` (centres undefined), the Emax with Aorta [1] is 125%. Moreover, the EC50 with Aorta [2] stood at 3360 nM.

As to `CCC(CCc1ccccc1)NCCc1ccccc1` (centres undefined), the Emax in the assay with Aorta [1] is 11.5%. Moreover, the concentration for a half-maximal effect (EC50) in the assay on Aorta [2] was 1240 nM.

For the molecule `CCCC(CC1CC1)NCCc1ccccc1` (centres undefined), in the assay on Aorta [1], the Emax turned out to be 116%. The EC50 in the assay on Aorta [2] was determined as 1510 nM.

For `CCCC(Cc1ccccc1)NCCN1CCCCC1` (centres undefined), the Emax in the assay on Aorta [1] was 110%. In addition, the EC50 in the assay on Aorta [2] was determined as 130 nM.

As for `CCCC(Cc1ccccc1)NCCC1=CCCCC1` (centres undefined), the Emax with Aorta [1] was 117%. Besides, in the assay with Aorta [2], the EC50 was 2410 nM.

As to `CN(CCc1ccccc1)C(CCc1ccccc1)Cc1ccccc1` (centres undefined), the Emax with Aorta [1] was determined as 93.5%. Moreover, the EC50 in the assay with Aorta [2] is 40 nM.

On to `CCCC(CC1CCCCC1)NCCN1CCCCC1` (centres undefined), for which the Emax in the assay on Aorta [1] came out at 88.4%. The EC50 in the assay with Aorta [2] was determined as 220 nM.

Take `CCN(CCc1ccccc1)C(CCc1ccccc1)Cc1ccccc1` (centres undefined): the Emax in the assay on Aorta [1] is 85%. For the same molecule, the EC50 with Aorta [2] amounted to 1210 nM.

Consider `CCCC(Cc1ccccc1)NCCC#N` (centres undefined), for which the Emax with Aorta [1] was 89.5%. In addition, the EC50 in the assay with Aorta [2] is 1430 nM.

Regarding `CCCC(Cc1ccccc1)NC1CC1` (centres undefined), in the assay with Aorta [1], the Emax was found to be 114%. The EC50 in the assay with Aorta [2] stood at 2250 nM.

For `CCCC(Cc1ccccc1)NCCc1ccc([N+](=O)[O-])cc1` (centres undefined), the Emax in the assay with Aorta [1] came out at 119%. Also, the EC50 in the assay on Aorta [2] is 1730 nM.

For the molecule `CCC(CCc1ccco1)NCCc1ccccc1` (centres undefined), the Emax in the assay with Aorta [1] came out at 122%. In the assay on Aorta [2], the EC50 stood at 180 nM.

Consider `C[N+](C)(CCc1ccccc1)C(CCc1ccccc1)Cc1ccccc1` (centres undefined), for which the Emax in the assay with Aorta [1] is 136%. Besides, in the assay with Aorta [2], the EC50 worked out at 1970 nM.

For the molecule `c1ccc2c(c1)CCC(NC1Cc3ccccc3C1)C2` (centres undefined), the maximal response (Emax) with Aorta [1] was determined as 122%. Moreover, the EC50 with Aorta [2] was found to be 1320 nM.

In the case of `CCC(CCc1cccs1)NCCc1ccccc1` (centres undefined), in the assay on Aorta [1], the Emax was found to be 120%. Also, the EC50 in the assay with Aorta [2] came out at 190 nM.

`c1ccc(CCC(Cc2ccccc2)N(CCc2ccccc2)CCc2ccccc2)cc1` (centres undefined): in the assay on Aorta [1], the Emax was 68.9%. Also, the EC50 in the assay with Aorta [2] was found to be 1390 nM.

In the case of `CCCC(CC1CCCCC1)NCCC1CCCCC1` (centres undefined), in the assay on Aorta [1], the Emax worked out at 83.6%. The EC50 with Aorta [2] was determined as 320 nM.

In the case of `CCCCCCCC(CCC)NCCc1ccccc1` (centres undefined), in the assay on Aorta [1], the Emax was found to be 89.7%. Besides, the EC50 in the assay with Aorta [2] came to 1050 nM.

With `CCCC(Cc1ccccc1)NCCc1ccc(F)cc1` (centres undefined), in the assay on Aorta [1], the Emax was 120%. The EC50 in the assay on Aorta [2] was 3830 nM.

Consider `CCCC(Cc1ccccc1)NCCN1CCNCC1` (centres undefined), for which, in the assay with Aorta [1], the Emax turned out to be 107%. For the same molecule, the half-maximal effective concentration (EC50) with Aorta [2] was 1040 nM.

As to `CCCC(Cc1ccc2c(c1)OCO2)NCCc1ccccc1` (centres undefined), the Emax with Aorta [1] is 113%. Also, in the assay with Aorta [2], the EC50 was determined as 1060 nM.

Consider `CCC(CCc1ccco1)NCCC1CCCCC1` (centres undefined), for which, in the assay on Aorta [1], the Emax worked out at 106%. The concentration giving a half-maximal response (EC50) in the assay on Aorta [2] came out at 2120 nM.

As to `CCCNC(CCc1ccccc1)Cc1ccccc1` (centres undefined), in the assay on Aorta [1], the Emax is 121%. The EC50 in the assay on Aorta [2] was determined as 3830 nM.

On to `CCCC(Cc1ccc(C)cc1)NCCc1ccc(F)cc1` (centres undefined), for which the Emax with Aorta [1] worked out at 118%. Further, the EC50 in the assay with Aorta [2] came out at 1230 nM.

As to `CCCC(Cc1ccc(Cl)cc1)NCCc1ccc(F)cc1` (centres undefined), the Emax in the assay on Aorta [1] stood at 99.1%. Also, the EC50 in the assay on Aorta [2] was determined as 1090 nM.

`CCCC(Cc1ccc2ccccc2c1)NCCc1ccccc1` (centres undefined): the Emax in the assay with Aorta [1] is 115%. The EC50 with Aorta [2] was 1600 nM.

As to `CCCC(Cc1ccccc1)NCCc1c[nH]c2ccccc12` (centres undefined), the Emax in the assay on Aorta [1] is 114%. Also, in the assay on Aorta [2], the EC50 worked out at 440 nM.

For the molecule `CCC(Cc1ccccc1)NCCc1ccccc1` (centres undefined), the Emax with Aorta [1] worked out at 120%. For the same molecule, in the assay on Aorta [2], the EC50 was 1120 nM.

Regarding `CCCC(Cc1ccccc1)NCCc1ccccn1` (centres undefined), the Emax with Aorta [1] turned out to be 114%. Also, in the assay on Aorta [2], the EC50 amounted to 1130 nM.

`CCC(CCc1ccc(C#N)cc1)NCCc1ccccc1` (centres undefined): in the assay with Aorta [1], the Emax is 125%. Besides, in the assay with Aorta [2], the EC50 amounted to 1960 nM.

Regarding `CCCC(Cc1ccccc1)NCCc1ccc(OC)cc1` (centres undefined), the maximal effect (Emax) with Aorta [1] came to 114%. Besides, in the assay on Aorta [2], the EC50 turned out to be 1280 nM.

As for `c1ccc(CCC(Cc2ccccc2)N(CCc2ccccc2)CC2CC2)cc1` (centres undefined), the Emax in the assay on Aorta [1] was found to be 75.4%. Further, the EC50 with Aorta [2] worked out at 140 nM.

On to `CCCC(CC1CCCCC1)NCCC1=CCCCC1` (centres undefined), for which the Emax in the assay on Aorta [1] was 84.7%. Also, in the assay with Aorta [2], the EC50 came out at 1000 nM.

Consider `COc1ccc(CCC(Cc2ccc(OC)c(OC)c2)NCCc2ccc(OC)c(OC)c2)cc1` (centres undefined), for which the Emax in the assay on Aorta [1] came to 122%. The EC50 in the assay with Aorta [2] stood at 2990 nM.

For the molecule `CC(=O)N(CCc1ccccc1)C(CCc1ccccc1)Cc1ccccc1` (centres undefined), the Emax in the assay with Aorta [1] amounted to 82.9%. Besides, the EC50 with Aorta [2] was 20300 nM.

For the molecule `CCCC(Cc1ccccc1)NCCc1ccc(O)cc1` (centres undefined), in the assay on Aorta [1], the Emax is 111%. Also, the EC50 in the assay on Aorta [2] was 49 nM.

Regarding `CCCC(Cc1ccccc1)NCCc1cccs1` (centres undefined), in the assay on Aorta [1], the Emax stood at 134%. For the same molecule, in the assay on Aorta [2], the EC50 was 3500 nM.
